Test results: patent publication US6713474B2, “Pyrrolopyrimidines as therapeutic agents” (Abbott GmbH & Co. KG, priority 1998, dated 2004)

First: Nc1ncnc2c1c(-c1ccc(Oc3ccccc3)cc1)cn2C1CCC(O)CC1 (stereo not shown) [Example 243, 4-[4-Amino-5-(4-phenoxyphenyl)-7H-pyrrolo[2,3-d]pyrimidin-7-yl]cyclohexanol]
Second: CN(C)[C@H]1CC[C@H](n2cc(-c3ccc(Oc4ccccc4)cc3)c3c(N)ncnc32)CC1 [Example 196, Trans-7-(4-Dimethylaminocyclohexyl)-5-(4-phenoxyphenyl)-7H-pyrrolo[2,3-d]pyrimidin-4-ylamine]
The melting point of the first is lower: 199 to 200 °C for the first, 207.5 to 210 °C for the second.

First: CC(C)(C)OC(=O)N1CCC(n2cc(-c3ccc(Oc4ccccc4)cc3)c3c(N)ncnc32)CC1 [Example 200, tert-Butyl 4-[4-Amino-5-(4-phenoxyphenyl)-7H-pyrrolo[2,3-d]pyrimidin-7-yl]-1-piperidinecarboxylate]
Second: Nc1ncnc2c1c(-c1ccc(Oc3ccccc3)cc1)cn2C1CCC(=O)CC1 [Example 175, 4-[4-Amino-5-(4-phenoxyphenyl)-7H-pyrrolo[2,3-d]pyrimidin-7-yl]cyclohexanone]
The melting point of the first is lower: 168.5 to 169.5 °C for the first, 252 to 254 °C for the second.

First: CC(C)(C(N)=O)n1cc(-c2ccc(Oc3ccccc3)cc2)c2c(N)ncnc21 [Example 160, 2-[4-Amino-5-(4-phenoxyphenyl)pyrrolo[2,3-d]pyrimidin-7-yl]-2-methylpropionamide]
Second: CC(C(=O)O)n1cc(-c2ccc(Oc3ccccc3)cc2)c2c(N)ncnc21 (stereo not shown) [Example 157, 2-[4-Amino-5-(4-phenoxyphenyl)-7H-pyrrolo[2,3-d]pyrimidin-7-yl]propionic Acid]
The melting point of the first is lower: 227 to 228 °C for the first, 239.5 to 241 °C for the second.

Compared with `CCOC(=O)Cn1cc(-c2ccc(Oc3ccccc3)cc2)c2c(N)ncnc21` [Example 150, Ethyl 2-[4-Amino-5-(4-phenoxyphenyl)-7H-pyrrolo[2,3-d]pyrimidin-7-yl]acetate], `Nc1ncnc2c1c(-c1ccc(Oc3ccccc3)cc1)cn2CC(=O)NCCOCCO` [Example 156, N-[-2(2-hydroxyethoxy)ethyl]-2-[4-amino-5-(4-phenoxyphenyl)-7H-pyrrolo[2,3-d]-pyrimidin-7-yl]acetamide] is lower in melting point: 161 to 161.3 °C for the first, 145 to 147 °C for the second.

First: Cl.Cl.NCCCCCCCCn1cc(-c2ccc(Oc3ccccc3)cc2)c2c(N)ncnc21.O.O (hydrate or solvate)
Second: Nc1ncnc2c1c(-c1ccc(Oc3ccccc3)cc1)cn2CC(=O)NCCN1CCNCC1 [Example 152, N-[2-(Piperazin-1-yl)ethyl]-2-[4-amino-5-[4-phenoxyphenyl)-7H-pyrrolo[2,3-d]-pyrimidin-7-yl]acetamide]
The melting point of the first is lower: 120 °C for the first, 138 to 140 °C for the second.

First: N#Cc1c(NCCc2ccncc2)cccc1Oc1ccc(-c2cn(C3CCOC3)c3ncnc(N)c23)cc1 (stereo not shown) [Example 38, 2-[4-(4-Amino-7-(3-tetrahydrofuryl)-7H-pyrrolo[2,3-d]pyrimidin-5-yl)phenoxy]-6-(2-(4-pyridyl)ethylamino)-benzonitrile]
Second: N#Cc1ccccc1Oc1ccc(-c2cn(C3CCOC3)c3ncnc(N)c23)cc1 (stereo not shown) [Example 28, 2-[4-(4-Amino-7-(3-tetrahydrofuryl)-7H-pyrrolo[2,3-d]pyrimidin-5-yl)phenoxy]-benzonitrile]
The melting point of the first is higher: 212 to 213 °C for the first, 201 to 203 °C for the second.

First: CCN(CC)Cc1ccccc1Oc1ccc(-c2cn(C3CCOC3)c3ncnc(N)c23)cc1 (stereo not shown) [Example 27, 2-[4-(4-Amino-7-(3-tetrahydrofuryl)-7H-pyrrolo[2,3-d]pyrimidin-5-yl)phenoxy]-N,N-diethylbenzylamine]
Second: COCCNCc1ccccc1Oc1ccc(-c2cn(C3CCOC3)c3ncnc(N)c23)cc1 (stereo not shown) [Example 33, 5-{4-[2-(2-Methoxyethyl)aminomethylphenoxy]phenyl}-7-(3-tetrahydrofuryl)-7H-pyrrolo[2,3-d]-pyrimidin-4-ylamine]
The melting point of the first is higher: 107 to 110 °C for the first, 66 to 68 °C for the second.

First: Nc1ncnc2c1c(-c1ccc(Oc3ccccc3)cc1)cn2CCN1C(=O)c2ccccc2C1=O [Example 171, N-{2-[4-Amino-5-(4-phenoxyphenyl)-7H-pyrrolo[2,3-d]pyrimidin-7-yl]ethyl}phthalimide]
Second: Nc1ncnc2c1c(-c1ccc(Oc3ccccc3)cc1)cn2S(=O)(=O)C1CCCC1 [Example 168, 7-Cyclopentanesulphonyl-5-(4-phenoxyphenyl)-7H-pyrrolo[2,3-d]pyrimidin-4-ylamine]
The melting point of the first is lower: 111 to 112 °C for the first, 188 to 188.5 °C for the second.

Compared with `COc1cc(-c2cn([C@H]3CC[C@H](N4CCN(C)CC4)CC3)c3ncnc(N)c23)ccc1NC(=O)OCc1ccccc1.O=C(O)/C=C\C(=O)O.O=C(O)/C=C\C(=O)O.O=C(O)/C=C\C(=O)O`, `NCc1cccnc1-n1cc(-c2ccc(Oc3ccccc3)cc2)c2c(N)ncnc21.O=C(O)/C=C\C(=O)O.O=C(O)/C=C\C(=O)O` is lower in melting point: 146 to 148 °C for the first, 131 to 134 °C for the second.

First: N#Cc1ccccc1Oc1ccc(-c2cn(C3CCOCC3)c3ncnc(N)c23)cc1 [Example 42, 2-[4-(4-Amino-7-(4-tetrahydropyranyl)-7H-pyrrolo[2,3-d]pyrimidin-5-yl)phenoxy]benzonitrile]
Second: Nc1ncnc2c1c(-c1ccc(Oc3ccccc3C=O)cc1)cn2C1CCOC1 (stereo not shown) [Example 29, 2-[4-(4-Amino-7-(3-tetrahydrofuryl)-7H-pyrrolo[2,3-d)pyrimidin-5-yl)phenoxy]benzaldehyde]
The melting point of the first is lower: 125 °C for the first, 185 to 187 °C for the second.

First: Nc1ncnc2c1c(-c1ccc(Oc3ccccc3)cc1)cn2[C@H]1CC[C@@H](N2CCCC2)CC1 [Example 193, cis-5-(4-Phenoxyphenyl)-7-(4-pyrrolidinocyclohex-1-yl)-7H-pyrrolo[2,3-d]pyrimidin-4-ylamine]
Second: Nc1ncnc2c1c(-c1ccc(Oc3ccccc3)cc1)cn2C1CCOC1 (stereo not shown) [Example 22, 5-(4-Phenoxyphenyl)-7-(3-tetrahydrofuryl)-7H-pyrrolo[2,3-d]pyrimidin-4-ylamine]
The melting point of the first is lower: 101 to 104 °C for the first, 196 to 196.5 °C for the second.

First: N#Cc1c(OCCN2CCOCC2)cccc1Oc1ccc(-c2cn(C3CCOCC3)c3ncnc(N)c23)cc1 [Example 50, 2-(4-(4-Amino-7-(4-tetrahydropyranyl)-7H-pyrrolo[2,3-d]pyrimidin-5-yl)phenoxy]-6-(2-morpholinoethoxy)benzonitrile]
Second: Nc1ncnc2c1c(-c1ccc(Oc3ccccc3CN3CCOCC3)cc1)cn2C1CCOC1 (stereo not shown) [Example 31, 5-[4-(2-Morpholinomethylphenoxy)phenyl]-7-(3-tetrahydrofuryl)-7H-pyrrolo[2,3-d]pyrimidin-4-ylamine]
The melting point of the first is lower: 110 °C for the first, 169 to 171 °C for the second.

`Nc1ncnc2c1c(-c1ccc(Oc3ccccc3CN3CCCCC3)cc1)cn2C1CCOC1` (stereo not shown) [Example 32, 5-[4-(2-Piperidinomethylphenoxy)phenyl]-7-(3-tetrahydrofuryl)-7H-pyrrolo[2,3-d]pyrimidin-4-ylamine] gave a melting point of 76 to 78 °C.

With `CN1CCN([C@H]2CCC[C@H](n3cc(-c4ccc(Oc5ccccc5)cc4)c4c(N)ncnc43)C2)CC1.Cl.Cl.Cl` (relative stereo) (hydrate or solvate) the melting point was 304 to 306 °C (dec.).
For `CN1CCN([C@@H]2CCC[C@H](n3cc(-c4ccc(Oc5ccccc5)cc4)c4c(N)ncnc43)C2)CC1.Cl.Cl.Cl` (relative stereo), the melting point was 224.5 to 226.5 °C (dec.).
With `Cl.Cl.Nc1ncnc2c1c(-c1ccc(Oc3ccccc3)cc1)cn2C1CNOC1` (stereo not shown) the melting point was 208 °C (dec.).
